Data: US6420120B1, “Use of a polypeptide as cell receptor for adenoviruses” (priority 1997, dated 2002)

Legend:
Experiment in all cases: Bifunctional ligand: Ad5Luc3 attachment to peptide-pretreated cells, luciferase activity
Conditions in all cases: 500 μM peptide, 1 h at 0-4° C. before Ad5Luc3
HeLa cells = type: cell-based, human
Protocol: (§1) The human cells (HeLa) or murine cells (Swiss-3T3 or NIH-3T3, ATCC CRL-1658) are rinsed and incubated between 0 and 4° C. with an isotonic solution (PBS) containing 500 μM of peptide. After 1 h, the solution is removed and replaced with the viral inoculum (Ad5Luc3) according to a protocol already described (see above or Hong et al., 1997, EMBO J. 16, 2294-2306). The virus is incubated for 1 hour between 0 and 4° C. to allow its attachment, and then the excess nonadsorbed virus is rinsed with culture medium precooled to 4° C. and the cells are again placed at 37° C. in the presence of culture medium preheated to 37° C. The virus is endocytosed at 37° C. and the viral cycle then lasts for 18 to 20 h at 37° C.

NIH-3T3 cells = type: cell-based, murine
Protocol: as §1

Swiss-3T3 cells = type: cell-based, murine
Protocol: as §1

Substance | increase in the luciferase activity (number of adsorbed viruses) versus no peptide (HeLa cells) | increase in the luciferase activity (number of adsorbed viruses) versus no peptide (NIH-3T3 cells) | increase in the luciferase activity (number of adsorbed viruses) versus no peptide (Swiss-3T3 cells)
GRP-MH20: bifunctional peptide with reverse orientation, GRP at N-terminus and MH20 at C-terminus, SEQ ID No: 23 (KMYPRGNHWAVGHLMRAIVGFRVQWLRRYFVNGSR; listed as Homo sapiens) | five to six times | eight to ten times | two to three times
MH20-GRP: bifunctional peptide, MH20 at N-terminus fused to GRP (Gastrin Releasing Peptide), SEQ ID No: 22 (RAIVGFRVQWLRRYFVNGSRKMYPRGNHWAVGHLM; listed as Homo sapiens) | identical slope | identical slope | identical slope
